Where two headings read alike, the source gives them in different places.
What was measured:
[1] = tested on: SF295 (central nervous system tumor); test: NCI method SRB growth inhibition, SF295; assay type: cell-based; conditions: Homo sapiens, SF-295; SF295, treated 48 hours, SRB stain
Outline: (§1)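 Cells were exposed to compound for 48 h, with a parallel plate fixed at the time of dosing (Tz) and a vehicle control (C). SRB staining was read at OD 515 nm. GI50 is the concentration at 50% growth relative to C−Tz, TGI is where Ti=Tz, and LC50 is −50% relative to Tz.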

HS 578T (breast cancer) = test: NCI method SRB growth inhibition, HS 578T; assay type: cell-based; conditions: Homo sapiens, HS578T, treated 48 hours, SRB stain
Outline: as §1

K562 (leukemia) = test: NCI method SRB growth inhibition, K562; assay type: cell-based; conditions: Homo sapiens; K562, treated 48 hours, SRB stain
Outline: as §1

LOX-IMVI (melanoma) = test: NCI method SRB growth inhibition, LOX-IMVI; assay type: cell-based; conditions: Homo sapiens, treated 48 hours, SRB stain
Outline: as §1

PC-3 (prostate cancer) = test: NCI method SRB growth inhibition, PC-3; assay type: cell-based; conditions: Homo sapiens; PC-3, treated 48 hours, SRB stain
Outline: as §1

OVCAR-3 (ovarian cancer) = test: NCI method SRB growth inhibition, OVCAR-3; assay type: cell-based; conditions: Homo sapiens; OVCAR-3, treated 48 hours, SRB stain
Outline: as §1

[2] = Metabolic stability in vivo (plasma half-life after IV); conditions: mouse, plasma, iv; intravenously at 1 mg/kg, male BALB/c nude mice; read-out: T½ of (IV in nude mice) (converted)
Procedure: The intravenous injection group of the embodiment compound was prepared with the mixed solvent of DMA:PEG400:30% SBECD=5:25:70 to form a 0.2 mg/mL of solution, and administered intravenously at 1 mg/kg of weight; and the oral preparation group was prepared with 0.5% MC to form a 1 mg/mL of solution, and administered by oral gavage at 10 mg/kg weight.
• Male BALB/c nude mice, 4-5 weeks old, purchased from Shanghai SLAC. 3. Experiment Method: 3.1 Instruments: • Liquid chromatography system: Shimadzu liquid chromatography system Shimadzu LC-30AD • MS/MS system: Applied Biosystems API5500 • Data collection: Analyst Software 1.5.2 3.2 Chromatographic Conditions Chromatographic Column • Analytical column: Kinetex 2.6u C18 100 A column (3.0 mm×30 mm) • Mobile phase: A: 10 mM NH4OAc (0.1% FA); B: Acetonitrile with 0.1% […] • Flow rate: 1.0 mL/min
Ion source was an electron spray ionization (ESI source) with negative ion detection; spray voltage source was 5500 V; ion source gas 1 (N2) was 50 psi; ion source gas 2 (N2) was 50 psi; air curtain gas (N2) was 30 psi. Scanning mode was multiple reaction monitoring (MRM); scanning time was 80 ms; collision gas pressure was 10 psi;
Grouping experiment, with three animals in each group, starting from now on, administration was started according to the weight of the animals. Blood was collected according to 5 min, 15 min, 30 min, 1 h, 2 h, 4 h, 8 h and 24 h after administration.
To 25.0 μL of plasma, 25.0 μL of internal standard solution (Tolbutamide (250 ng/mL) in acetonitrile), 25.0 μL of acetonitrile and 100 μL of acetonitrile were added, and the mixture was vortexed for 1 min, and centrifuged for 5 min (14000 rpm). 120 μL of the resulting supernatant was added with 80.0 μL of water (containing 1% formic acid) and mixed well, then analyzed by LC/MS/MS.

[3] = tested on: A549 (non-small cell lung cancer); test: NCI method SRB growth inhibition, A549; assay type: cell-based; conditions: Homo sapiens; A549, treated 48 hours, SRB stain
Outline: as §1

[4] = Liver microsomes stability; assay type: in vitro ADME, human; conditions: for half-life at 1 μM: human, human liver microsomes
Outline: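 Compound at 1 μM final incubated with 1 mg/mL human liver microsomes and 1 mM NADPH (no-NADPH control), sampled at 0, 5, 15, 30, 60 min. Remaining parent quantified by LC-MS/MS; T1/2 = 0.693/k.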

HCT116 (colon cancer) = test: NCI method SRB growth inhibition, HCT116; assay type: cell-based; conditions: Homo sapiens, HCT-116; HCT116, treated 48 hours, SRB stain
Outline: as §1

786-0 (renal cancer) = test: NCI method SRB growth inhibition, 786-0; assay type: cell-based; conditions: Homo sapiens; 786-0, treated 48 hours, SRB stain
Outline: as §1

[5] = 1 μM compound, 1 mg/mL human liver microsomes, 1 mM NADPH
[6] = 1 μM compound, 1 mg/mL human liver microsomes, 1 mM NADPH, read-out: T½ of HLM
[7] = as repeated in Table 4, read-out: T½ of HLM (in vitro)

For `[2H]C([2H])([2H])Oc1cc(C(=O)Nc2cc3c(cc2Oc2cc(C)cc(C)c2)C(=O)N[C@@H](CC(=O)N(CC)CC)C(=O)N3)c(Cl)c(OC([2H])([2H])[2H])c1OC([2H])([2H])[2H]` [Compound 1, (S)-2-chloro-N-[3-[2-(diethylamino)-2-oxoethyl]-7-(3,5-dimethylphenoxy)-2,5-dioxo-2,3,4,5-tetrahydro-1H-benzo[e][1,4]diazepin-8-yl]-3,4,5-tris(trideuteromethoxy)benzamide], the GI50 [1] was 12.3 nM, the GI50 (HS 578T (breast cancer)) was 31.6 nM and the GI50 (K562 (leukemia)) was less than 5 nM. For the same compound, the GI50 (LOX-IMVI (melanoma)) was less than 5 nM, the GI50 (PC-3 (prostate cancer)) was 5.5 nM and the GI50 (OVCAR-3 (ovarian cancer)) was 5.5 nM. For the same compound, the half-life [2] was 53.1 min, the GI50 [3] was 15 nM and the microsomal CLint at 1 μM [4, 5] was 16.5 µL/min/mg. For the same compound, the half-life at 1 μM [4, 6] was 42 min, the half-life at 1 μM [4, 7] was 42 min and the GI50 (HCT116 (colon cancer)) was 5.4 nM. For the same compound, the GI50 (786-0 (renal cancer)) was 8.1 nM.

In the case of `[2H]C([2H])([2H])Oc1cc(C(=O)Nc2cc3c(cc2Oc2cc(C)cc(C)c2)C(=O)N[C@@H](CC(=O)N(C([2H])([2H])C([2H])([2H])[2H])C([2H])([2H])C([2H])([2H])[2H])C(=O)N3)c(Cl)c(OC([2H])([2H])[2H])c1OC([2H])([2H])[2H]` [Compound 6, (S)-2-chloro-N-[3-[2-[bis(pentadeuteroethyl)amino]-2-oxoethyl]-7-(3,5-dimethylphenoxy)-2,5-dioxo-2,3,4,5-tetrahydro-1H-benzo[e][1,4]diazepin-8-yl]-3,4,5-tris(trideuteromethoxy)benzamide], the GI50 [1] is reported as 13.1 nM, the GI50 (HS 578T (breast cancer)) is reported as 20.5 nM and the GI50 (K562 (leukemia)) is reported as less than 5 nM. The GI50 (LOX-IMVI (melanoma)) was less than 5 nM, the GI50 (PC-3 (prostate cancer)) was 10.3 nM and the GI50 (OVCAR-3 (ovarian cancer)) was 11.9 nM. The half-life [2] was 78.6 min, the GI50 [3] was 11.7 nM and the microsomal CLint at 1 μM [4, 5] was 9.5 µL/min/mg. For the same compound, the half-life at 1 μM [4, 6] was 73 min, the half-life at 1 μM [4, 7] was 73 min and the GI50 (HCT116 (colon cancer)) was less than 5 nM. It also gave a GI50 (786-0 (renal cancer)) of 16.9 nM.

In the case of `[2H]C([2H])([2H])C([2H])([2H])N(C(=O)C[C@H]1C(=O)Nc2cc(NC(=O)c3cc(OC)c(OC)c(OC)c3Cl)c(Oc3cc(C)cc(C)c3)cc2C(=O)N1C)C([2H])([2H])C([2H])([2H])[2H]` [Compound 12, (S)-2-chloro-N-[3-[2-[bis(pentadeuteroethyl)amino]-2-oxoethyl]-7-(3,5-dimethylphenoxy)-4-methyl-2,5-dioxo-2,3,4,5-tetrahydro-1H-benzo[e][1,4]diazepin-8-yl]-3,4,5-trimethoxybenzamide], the GI50 [1] is reported as 10.8 nM, the GI50 (HS 578T (breast cancer)) is reported as 13.3 nM and the GI50 (K562 (leukemia)) is reported as less than 5 nM. For the same compound, the GI50 (LOX-IMVI (melanoma)) was less than 5 nM, the GI50 (PC-3 (prostate cancer)) was 5.4 nM and the GI50 (OVCAR-3 (ovarian cancer)) was 12.6 nM. The half-life [2] was 34 min, the GI50 [3] was less than 5 nM and the microsomal CLint at 1 μM [4, 5] was 30.7 µL/min/mg. For the same compound, the half-life at 1 μM [4, 6] was 22.6 min, the half-life at 1 μM [4, 7] was 22.6 min and the GI50 (HCT116 (colon cancer)) was less than 5 nM. The GI50 (786-0 (renal cancer)) was 9.9 nM.

Compound `[2H]C([2H])([2H])C([2H])([2H])N(C(=O)C[C@@H]1NC(=O)c2cc(Oc3cc(C)cc(C)c3)c(NC(=O)c3cc(OC)c(OC)c(OC)c3Cl)cc2NC1=O)C([2H])([2H])C([2H])([2H])[2H]` [Compound 8, (S)-2-chloro-N-[3-[2-[bis(pentadeuteroethyl)amino]-2-oxoethyl]-7-(3,5-dimethylphenoxy)-2,5-dioxo-2,3,4,5-tetrahydro-1H-benzo[e][1,4]diazepin-8-yl]-3,4,5-trimethoxybenzamide] has a GI50 [1] of 10.3 nM, a GI50 (HS 578T (breast cancer)) of 13.3 nM and a GI50 (K562 (leukemia)) of less than 5 nM. For the same compound, the GI50 (LOX-IMVI (melanoma)) was less than 5 nM, the GI50 (PC-3 (prostate cancer)) was 9.7 nM and the GI50 (OVCAR-3 (ovarian cancer)) was 5 nM. The half-life [2] was 38 min, the GI50 [3] was 15.3 nM and the microsomal CLint at 1 μM [4, 5] was 13.7 µL/min/mg. The half-life at 1 μM [4, 6] was 50.6 min, the half-life at 1 μM [4, 7] was 50.6 min and the GI50 (HCT116 (colon cancer)) was less than 5 nM. It also gave a GI50 (786-0 (renal cancer)) of 13.9 nM.
